Measurements taken from patent US3966939A, “Novel 2-substituted 6,7-benzomorphan derivatives and salts thereof in analgesic compositions” (Sumitomo Chemical Company, Limited, priority 1972, dated 1976).

Tests used:
[1] = Abstinence syndrome / physical dependency on withdrawal after repeated administration (body weight decrease); type: in vivo, male rats of Wistar strain; parameters: key to Abstinence syndrome: +++: severe decrease (about 5% decrease); ++: moderate decrease; +: mild decrease; -: no decrease; conditions: rats; for physical dependency: orally or subcutaneously everyday for over one month; for Abstinence syndrome: subcutaneous twice a day, body weight decrease on the day after drug withdrawal
Method: (§1) On account of this addiction liability, these analgesics are severely restricted in a therapeutic use.
Note: Groups of male rats of Wistar strain (body weight, 150 g), each group consisting of 20 male rats, were subcutaneously given the test compound twice a day for 4 consecutive weeks. On the next day after drug withdrawal, the body weight was measured. The symbols have the following meanings: +++, severe decrease (about 5% decrease); ++, moderate decrease; +, mild decrease; -, no decrease.

[2] = Addiction / drug dependency in (long term) animal tests; type: in vivo
Description: Hitherto, many benzomorphan derivatives (e.g., phenazocine, pentazocine) have been developed as analgesic drugs but most of them have addiction and produce narcotic symptoms at their usual dosages.
as §1

[3] = Subcutaneous writhing test (acetic acid); type: in vivo, mice; conditions: for ED50: Mus musculus, sc, mice, subcutaneous 20 minutes before acetic acid, Litchfeld-Wilcoxon's method; for analgesic activity: in words; for analgesic action compared with pentazocine: subcutaneous writhing test, versus pentazocine
Method: […]. Note: The test was based on the specific anatagonism of the test compound to the typical syndrome produced by intraperitoneal injection of 0.6% aqueous acetic acid. The syndrome was characterized by intermittent contractions of the abdomen, twisting and turning of the trunk and extension of the hind legs. A group of 5 mice was used for each dose level. The test compound was administered subcutaneously 20 minutes before the injection of acetic acid. […] The ED50 value was calculated according to the Litchfeld-Wilcoxon's method.

[4] = cited from earlier work

SMILES | physical dependency [1] | Abstinence syndrome ([1]; 40 mg/kg/day for 4 weeks) | addiction in long term animal tests [2] | ED50 [3] [mg/kg] | analgesic activity [3] | analgesic action compared with pentazocine [3] | Abstinence syndrome ([1]; 20 mg/kg/day for 4 weeks) | analgesic activity (known) ([4]; U.S. Pat. No. 3,138,603) | addiction liability (known) ([4]; prior benzomorphan derivatives)
CCC1C2Cc3ccc(O)cc3C1(CC)CCN2CCSC (stereo not drawn) [2'-Hydroxy-2-(β-methylthioethyl)-5,9-diethyl-6,7-benzomorphan] | did not produce any physical dependency | - | do not show addiction |  |  |  |  |  | 
CC(C)SCCN1CCC2(C)c3cc(O)ccc3CC1C2C (stereo not drawn) [2'-Hydroxy-2-(β-isopropylthioethyl)-5,9-dimethyl-6,7-benzomorphan] |  |  |  | 3.6 | strong analgesic activity | much more potent analgesic action than pentazocine |  |  | 
CC1C2Cc3ccc(O)cc3C1(C)CCN2C (stereo not drawn) [2'-Hydroxy-2,5,9-trimethyl-6,7-benzomorphan] |  |  |  |  |  |  | ++ | potent analgesic activity | show an addition liability
CCC12CCN(CCSC)C(Cc3ccc(O)cc31)C2 (stereo not drawn) [2'-Hydroxy-2-(β-methylthioethyl)-5-ethyl-6,7-benzomorphan] | did not produce any physical dependency |  | do not show addiction | 0.34 | strong analgesic activity | much more potent analgesic action than pentazocine | - |  | 
CSCCN1CCC2(C)c3cc(O)ccc3CC1C2C (stereo not drawn) [2'-Hydroxy-2-(β-methylthioethyl)-5,9-dimethyl-6,7-benzomorphan] | did not produce any physical dependency | - | do not show addiction | 3.1 | strong analgesic activity | much more potent analgesic action than pentazocine |  |  | 
